From the supplement of paper PMC10307832

Tests used:
Experiment in all cases: relative viability (nuclei count vs DMSO), 5 days (fraction); higher = more cells survive
Tosedostat + Luminespib = compound: CC(C)C[C@@H](C(=O)N[C@H](C(=O)OC1CCCC1)c1ccccc1)[C@H](O)C(=O)NO [Tosedostat] + CCNC(=O)c1noc(-c2cc(C(C)C)c(O)cc2O)c1-c1ccc(CN2CCOCC2)cc1 [Luminespib] (partner 0.01 µM)
Summary of the method: (§1)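 Lung cancer cell lines were pin-tool dosed in 1536-well plates on the day after seeding, with either a lone drug or a fixed anchor-drug dose plus five library-drug doses (not always all listed) in √10 steps. Nuclei were counted on 4× images after 5 days. Relative viability is the ratio of treated-well to vehicle-well nuclei counts, with each value a median of duplicate plates.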

Tosedostat + Crizotinib = compound: CC(C)C[C@@H](C(=O)N[C@H](C(=O)OC1CCCC1)c1ccccc1)[C@H](O)C(=O)NO [Tosedostat] + C[C@@H](Oc1cc(-c2cnn(C3CCNCC3)c2)cnc1N)c1c(Cl)ccc(F)c1Cl [Crizotinib] (partner 1 µM)
Summary of the method: as §1

Tosedostat + Pemetrexed = compound: CC(C)C[C@@H](C(=O)N[C@H](C(=O)OC1CCCC1)c1ccccc1)[C@H](O)C(=O)NO [Tosedostat] + Nc1nc2[nH]cc(CCc3ccc(C(=O)N[C@@H](CCC(=O)O)C(=O)O)cc3)c2c(=O)[nH]1 [Pemetrexed] (partner 0.2 µM)
Summary of the method: as §1

[1] = compound: CC1=NN=C(O1)C2=NN=C(C=C2)N3CCC(CC3)OC4=C(C=CC(=C4)F)Cl + COc1cccc2cc(-c3nc([C@H]4CC[C@H](C(=O)O)CC4)n4ncnc(N)c34)[nH]c12 [OSI-027] (partner 0.5 µM)
Summary of the method: as §1

Cell Line	relative viability (Tosedostat + Luminespib; first compound 0.02 µM)	relative viability (Tosedostat + Luminespib; first compound 0.06325 µM)	relative viability (Tosedostat + Luminespib; first compound 0.2 µM)	relative viability (Tosedostat + Luminespib; first compound 0.6325 µM)	relative viability (Tosedostat + Luminespib; first compound 2 µM)	relative viability (Tosedostat + Crizotinib; first compound 0.02 µM)	relative viability (Tosedostat + Crizotinib; first compound 0.06325 µM)	relative viability (Tosedostat + Crizotinib; first compound 0.2 µM)	relative viability (Tosedostat + Crizotinib; first compound 0.6325 µM)	relative viability (Tosedostat + Crizotinib; first compound 2 µM)	relative viability (Tosedostat + Pemetrexed; first compound 0.02 µM)	relative viability (Tosedostat + Pemetrexed; first compound 0.06325 µM)	relative viability (Tosedostat + Pemetrexed; first compound 0.2 µM)	relative viability (Tosedostat + Pemetrexed; first compound 0.6325 µM)	relative viability (Tosedostat + Pemetrexed; first compound 2 µM)	relative viability ([1]; first compound 0.253 µM)	relative viability ([1]; first compound 0.8 µM)	relative viability ([1]; first compound 2.53 µM)	relative viability ([1]; first compound 8 µM)
NCI-H358	0.229	0.304	0.234	0.293	0.187	0.725	0.458	0.355	0.198	0.196	0.173	0.2	0.164	0.143	0.161	0.635	0.461	0.561	0.514
NCI-H441	0.347	0.351	0.348	0.332	0.306	0.648	0.761	0.496	0.335	0.401	0.228	0.246	0.275	0.266	0.309	0.579	0.347	0.603	0.52
NCI-H460	0.0336	0.0335	0.03	0.0417	0.0255	0.956	0.787	0.905	0.708	0.932	0.0658	0.062	0.0697	0.0606	0.0547	0.319	0.302	0.137	0.0418
NCI-H520	0.172	0.252	0.209	0.291	0.225	0.692	0.754	0.787	0.833	0.846	0.728	0.773	0.743	0.782	0.734	0.336	–	0.337	0.244
NCI-H596	1.07	1.26	1.04	0.893	0.938	0.968	1.07	1.13	1.15	0.825	0.468	0.488	0.515	0.497	0.45	0.565	0.572	0.734	0.698
NCI-H647	0.11	0.212	0.171	0.334	0.167	1.25	1.04	0.831	0.957	0.869	0.178	0.163	0.167	0.196	0.179	0.516	0.423	0.453	0.207
NCI-H650	0.952	0.773	0.834	0.714	0.755	0.786	0.662	0.596	0.551	0.375	1.01	0.846	0.895	0.873	0.804	0.553	0.447	0.528	0.437
NCI-H661	0.958	0.957	0.977	0.909	0.885	0.929	0.93	1.12	1.04	1.04	0.959	0.9	0.97	0.984	0.994	0.633	0.588	0.528	0.484
NCI-H838	0.323	0.284	0.308	0.389	0.355	0.969	0.92	0.826	0.818	0.948	0.275	0.254	0.255	0.299	0.29	0.37	0.394	0.396	0.331
NCI-H1355	0.699	0.782	0.779	0.688	0.648	0.997	1.09	1.06	0.976	0.813	1.03	1.05	1.14	0.952	0.916	0.343	0.38	0.386	0.331
NCI-H1437	1.13	1.07	1.2	1.24	1.13	0.941	0.988	1.03	0.914	0.895	0.297	0.353	0.335	0.354	0.391	0.697	0.742	0.795	0.614
NCI-H1563	0.575	0.52	0.5	0.648	0.492	0.877	0.998	0.893	1.07	0.917	0.838	0.99	0.797	1.14	0.839	0.772	0.854	0.77	0.834
NCI-H1650	0.185	0.179	0.205	0.19	0.174	0.988	0.937	1.07	0.86	1.01	0.416	0.392	0.413	0.475	0.526	–	0.472	0.626	0.615
NCI-H1651	0.787	0.715	0.981	0.828	0.582	0.918	0.851	0.878	0.897	0.817	0.586	0.637	0.555	0.711	0.623	0.73	0.597	0.717	0.697
NCI-H1666	1.02	1.01	0.969	0.994	1.11	0.972	1.01	1.01	0.937	1.11	0.888	0.831	0.88	0.991	0.963	0.539	0.697	0.801	0.797
NCI-H1734	0.183	0.197	0.194	0.229	0.232	0.727	0.695	0.688	0.574	0.656	0.455	0.446	0.428	0.517	0.435	0.647	0.446	0.599	0.524
NCI-H1755	0.595	0.512	0.512	0.578	0.415	0.933	0.846	0.876	0.856	0.771	0.521	0.43	0.362	0.484	0.416	0.609	0.625	0.669	0.597

Cell Line	relative viability (Tosedostat + Luminespib; first compound 0.02 µM)	relative viability (Tosedostat + Luminespib; first compound 0.06325 µM)	relative viability (Tosedostat + Luminespib; first compound 0.2 µM)	relative viability (Tosedostat + Luminespib; first compound 0.6325 µM)	relative viability (Tosedostat + Luminespib; first compound 2 µM)	relative viability (Tosedostat + Crizotinib; first compound 0.02 µM)	relative viability (Tosedostat + Crizotinib; first compound 0.06325 µM)	relative viability (Tosedostat + Crizotinib; first compound 0.2 µM)	relative viability (Tosedostat + Crizotinib; first compound 0.6325 µM)	relative viability (Tosedostat + Crizotinib; first compound 2 µM)	relative viability (Tosedostat + Pemetrexed; first compound 0.02 µM)	relative viability (Tosedostat + Pemetrexed; first compound 0.06325 µM)	relative viability (Tosedostat + Pemetrexed; first compound 0.2 µM)	relative viability (Tosedostat + Pemetrexed; first compound 0.6325 µM)	relative viability (Tosedostat + Pemetrexed; first compound 2 µM)	relative viability ([1]; first compound 0.253 µM)	relative viability ([1]; first compound 0.8 µM)	relative viability ([1]; first compound 2.53 µM)	relative viability ([1]; first compound 8 µM)
NCI-H1792	0.427	0.356	0.433	0.802	0.935	1	0.991	1.04	0.963	1.03	0.92	0.884	0.838	0.935	0.658	0.547	0.587	0.686	0.731
NCI-H1915	0.864	0.79	0.814	0.803	0.608	0.922	0.894	0.901	0.905	0.79	0.526	0.538	0.645	0.726	0.781	0.596	0.349	0.553	0.421
NCI-H1944	0.855	0.599	0.758	0.724	0.748	1.11	1.01	1.04	1.08	0.942	0.626	0.656	0.84	0.619	0.819	0.36	0.379	0.441	0.425
NCI-H1975	0.208	0.195	0.382	0.325	0.19	0.939	1.01	1.1	0.773	0.802	0.313	0.286	0.325	0.271	0.23	–	0.529	0.754	0.695
NCI-H1993	0.87	0.736	1.05	0.827	0.781	0.994	0.761	0.779	0.688	0.685	0.478	0.619	0.716	0.532	0.485	0.457	0.552	0.523	0.581
NCI-H2009	1.12	1	1.05	0.97	1.04	1.07	1.07	1	1.02	0.924	1.07	0.998	1.07	0.977	1.1	0.673	0.618	0.605	0.564
NCI-H2023	0.912	0.628	0.796	0.571	0.614	0.689	0.609	0.747	0.696	0.637	0.22	0.23	0.292	0.285	0.212	0.33	0.35	0.35	0.314
NCI-H2085	0.377	0.969	0.491	0.407	0.4	0.842	0.98	0.91	0.896	0.814	–	1.02	0.929	0.959	0.714	0.594	–	0.732	0.49
NCI-H2087	0.181	0.158	0.273	0.229	0.21	0.832	0.823	0.643	0.731	0.716	0.682	0.754	0.709	0.727	0.612	0.641	0.422	0.422	0.3
NCI-H2126	0.848	0.905	0.91	0.878	0.654	0.974	1.02	1.02	0.954	0.935	0.644	0.698	0.708	0.705	0.611	0.626	0.589	0.756	0.661
NCI-H2170	0.819	0.637	0.612	0.592	0.662	1.17	1.12	1.19	1.22	1.37	0.262	0.29	0.244	0.348	0.352	0.486	0.485	0.654	0.489
NCI-H2228	0.149	0.132	0.198	0.188	0.12	0.599	0.438	0.48	0.418	0.445	0.328	0.32	0.317	0.338	0.256	0.41	0.448	0.302	0.468
NCI-H2347	0.421	0.425	0.594	0.417	0.474	0.818	0.666	0.676	0.747	0.771	0.443	0.425	0.434	0.421	0.374	–	0.366	0.463	0.354
NCI-H2405	0.8	0.809	0.838	0.786	0.79	0.873	0.772	0.825	0.771	0.791	1.02	1.04	1.05	0.875	0.85	0.607	0.549	0.634	0.616
NCI-H3122	0.0953	0.083	0.106	0.122	0.132	0.292	0.274	0.277	0.254	0.234	0.206	0.213	0.21	0.312	0.325	0.359	0.384	0.418	0.348
PC-3 [JPC-3]	0.735	0.734	0.731	0.692	0.537	1	0.885	0.998	0.942	0.665	1.03	1.18	0.918	0.901	0.54	0.691	0.619	0.655	0.681
